Experimental data reported in US11820720B2, “3-(5-substituted-4-oxoquinazolin-3(4H)-yl)-3-deuteropiperidine-2,6-dione derivatives and compositions comprising and methods of using the same” (DeuteRx, LLC, priority 2013, dated 2023).

Assays:
[1] = In vitro stability in human plasma at 37° C. (enantiomerization, D/H exchange, degradation); assay type: in vitro ADME
Protocol: (§1) (+)- and (−)-3-(5-Amino-2-methyl-4-oxoquinazolin-3(4H)-yl)-piperidine-2,6-dione and rac-3-(5-amino-2-methyl-4-oxoquinazolin-3(4H)-yl)-(3-^2H)-piperidine-2,6-dione (87% deuterium content at the C3-position and no detectable deuterium at the C5-position, 50:50 racemic mixture of (+)- and (−)-deuterated enantiomers) were incubated in CD-1 mouse plasma (K3EDTA as anticoagulant) or human plasma (K3EDTA as anticoagulant) at 37° C. in duplicates. Aliquots were removed at t=0, 0.5, 1, 2, 6, 8, 24, 48, and 96 h.
(§2) Plasma proteins were precipitated by addition of acetonitrile containing internal standard (ISTD, tolbutamide) and the supernatants were analyzed semi-quantitatively by LC/MS-MS with elution on a chiral column (Daicel ChiralPak IE-3) for the separation of enantiomers (isocratic method of 20:80 v/v 0.1% acetic acid in water and acetonitrile). Peak areas for the deuterated enantiomers (+)- and (−)-3-(5-amino-2-methyl-4-oxoquinazolin-3(4H)-yl)-(3-^2H)-piperidine-2,6-dione were normalized to the ISTD and corrected for the isotopic peak of the corresponding protonated enantiomer, (+)- and (−)-3-(5-amino-2-methyl-4-oxoquinazolin-3(4H)-yl)-piperidine-2,6-dione respectively, if present. Corrected data were analyzed and plotted using Microsoft Excel 2013 (Microsoft Corp, Redmond, WA) and the Excel Solver.
(§3) Scheme 1 below illustrates the possible reactions in a solution of deuterated racemate. The deuterium in both enantiomers, d+ and d−, can be lost by D/H exchange to give both protonated enantiomers, h+ and h− with rate constants kD++, kD+−, kD−+, kD−−. At the same time, the protonated enantiomers h+ and h−, can exchange, with enantiomerization rate constants k+− and k−+. All four compounds can also degrade with potentially different degradation rate constants kh+d, kh−d, kd+d, kd−d.
(§4) Human and mouse plasma data were analyzed independently. Independent analyses of the data for h+ and h− were performed first and the average rate constants k+− and k−+ from these two fits were calculated and used as constants in the fitting of the stability data of the deuterated racemate. Calculated concentrations were obtained through numerical approximation of differential equations (1) and (2) for the stability studies of h+ and h− and equations (3) to (6) for the stability study of deuterated racemate (50:50 d+:d−) by the Euler method (equation (7)). The step between calculated time points was minimized in order to minimize the local error (proportional to the square of the step size) and the global error (proportional to the step size).
(§5) The average degradation rate constant obtained by fitting the data for h+ and h− was used in the fit of the stability data of the deuterated racemate. Data analysis was performed in Microsoft Excel 2013, using the Solver Generalized Reduced Gradient Nonlinear method with central derivatives to minimize the sum of sums of weighted Δ^2, square of difference between ISTD-normalized experimental data and calculated value, divided by the experimental data.
(§6) [formula] where [h+], [h−], [d+], [d−] are the concentrations of both protonated and deuterated enantiomers, k+− and k−+ are the rate constants for the enantiomerization reactions [h+] to [h−] and [h−] to [h+] respectively, kD++, kD+−, kD−+, and kD−− are the rate constants for the D/H exchange reactions [d+] or [d−] to [h+] or [h−], and kd is the rate constant for the degradation of all four compounds
(§7) [formula] where [X]ti is the concentration of either enantiomer at time ti, t1 is a time at which [X] is known, t2 is a time at which [X] is calculated, and [d[X]]t1 is the calculated value of the differential equation at time t1.

[2] = In vitro stability in CD-1 mouse plasma at 37° C. (enantiomerization, D/H exchange, degradation); assay type: in vitro ADME
Protocol: as §1, §2, §3, §4, §5, §6, §7

[3] = Pharmacokinetics after single oral gavage dose in female CB.17 SCID mice; assay type: in vivo; details: for AUC, compound analyzed d+ / AUC, compound analyzed d− / AUC, compound analyzed h+ / AUC, compound analyzed h−: 15 mg/kg
Protocol: Female CB.17 SCID mice (8-12 weeks of age) were administered a single dose of protonated racemate (h-rac, 30 mg/kg), d− (15 mg/kg), or d+ (15 mg/kg) by oral gavage. Deuterated enantiomers (i.e., d− and d+) used in this study contain ˜10% of the corresponding protonated enantiomer. Blood was collected into potassium EDTA (K2EDTA) containers by terminal cardiac puncture under carbon dioxide anesthesia from N=3 per group per time point at 0.25, 0.5, 1, 2, 4, 8, and 24 h post-dose. Plasma was isolated, frozen, and stored until ready for analysis.
Samples were prepared for quantitative analysis by liquid-liquid extraction in methyl-t-butylether (MTBE) with ondansetron as internal standard (ISTD). MTBE was evaporated under nitrogen flow and samples were reconstituted in 1% acetic acid in water/acetonitrile (20/80). Analysis was performed by chiral LC/MS-MS on a Daicel ChiralPak IE-3 column using an isocratic LC method of 0.1% acetic acid in water and acetonitrile (20:80 v/v). ISTD-normalized peak areas for deuterated enantiomers d- and d+ were corrected from interference from naturally occurring isotopes of the protonated analytes. Concentrations were obtained by interpolation on standard curves prepared in mouse plasma using standard solutions of the analytes.
Data was plotted in Excel 2013 (Microsoft Corp, Redmond, WA) and analyzed within Excel using the PKSolver add-in (version 2.0, as described in Zhang Y. et al Comput. Methods Programs Biomed. 99 (2010), 306-314) to determine pharmacokinetic parameters including exposure (as area under the curve, AUC) and elimination half-life (t1/2).

[4] = tested on: Human Multiple Myeloma H929 Cell Line; experiment: Efficacy in human multiple myeloma H929 xenograft in female CB.17 SCID mice; assay type: in vivo; details: daily oral gavage 23 days, FIG. 10; for potency/efficacy at limiting tumor growth, comparison between compounds: d− and d+ 1.5 or 15 mg/kg, h-rac 3 mg/kg
Protocol: Female CB.17 SCID mice (8-12 weeks of age, N=60) were administered 1×10^7 H929 tumor cells in 50% Matrigel subcutaneously in their flank (0.2 mL/mouse). Animals were returned to their cages and tumor growth was monitored. Tumor size was reported as tumor volume (Vol) calculated as Vol=½ (L*W^2), where L and W are the length and width of the tumor as measured by caliper (L>W). A pair match was performed when tumors reached an average size of 100-150 mm^3 and the animals were divided into 6 treatment groups of N=10 animals each.
Animals were treated daily by oral gavage (10 mL/kg) with vehicle, d− (1.5 or 15 mg/kg), d+ (1.5 or 15 mg/kg), or h-rac (racemic mixture of protonated enantiomers h− and h+; 3 mg/kg). The compound h-rac was administered at twice the dose of the deuterated enantiomers since it contains 50% (i.e., 1.5 mg/kg) of each enantiomer. Body weight measurements were taken daily for the first week then biweekly. Tumor sizes were measured by caliper biweekly. The study was terminated after 23 days of dosing, then all animals were euthanized.

[5] = human plasma, 37° C., fit to equations 1 to 6
[6] = human plasma, 37° C., average of values for h− and h+
[7] = mouse plasma, 37° C., fit to equations 1 to 6
[8] = mouse plasma, 37° C., average of values for h− and h+
[9] = mouse plasma, single oral gavage 15 mg/kg

## 3-(5-amino-2-methyl-4-oxoquinazolin-3(4H)-yl)-(3-^2H)-piperidine-2,6-dione [d-rac]
[1]; human plasma, 37° C.
  Calculated half-life t1/2, D/H exchange of d+ (D++ and D+−): 8.3 h
  Calculated half-life t1/2, D/H exchange of d− (D−+ and D−−): 5.2 h
  Calculated half-life t1/2, degradation d: 7.8 h
  Calculated half-life t1/2, enantiomerization +−: 2.6 h
  Calculated half-life t1/2, enantiomerization −+: 3.6 h
[1]; [5]
  k D++ (rate constant D/H exchange d+ to h+): 2.33e-05 s⁻¹
  k D+− (rate constant D/H exchange d+ to h−): 0 s⁻¹
  k D−+ (rate constant D/H exchange d− to h+): 0 s⁻¹
  k D−− (rate constant D/H exchange d− to h−): 3.72e-05 s⁻¹
[1]; [6]
  k +− (enantiomerization rate constant used in analysis of d-rac): 0.264 h⁻¹
  k d (degradation rate constant for the enantiomers of d-rac): 2.51e-05 s⁻¹
  k −+ (enantiomerization rate constant used in analysis of d-rac): 0.195 h⁻¹
[2]; mouse plasma, 37° C.
  Calculated half-life t1/2, D/H exchange of d+ (D++ and D+−): 14.5 h
  Calculated half-life t1/2, D/H exchange of d− (D−+ and D−−): 12.7 h
  Calculated half-life t1/2, degradation d: 13.0 h
  Calculated half-life t1/2, enantiomerization +−: 10.5 h
  Calculated half-life t1/2, enantiomerization −+: 7.2 h
[2]; [7]
  k D++ (rate constant D/H exchange d+ to h+): 1.29e-05 s⁻¹
  k D+− (rate constant D/H exchange d+ to h−): 3.03e-07 s⁻¹
  k D−+ (rate constant D/H exchange d− to h+): 4.61e-06 s⁻¹
  k D−− (rate constant D/H exchange d− to h−): 1.06e-05 s⁻¹
[2]; [8]
  k +− (enantiomerization rate constant used in analysis of d-rac): 0.0662 h⁻¹
  k d (degradation rate constant for the enantiomers of d-rac): 1.48e-05 s⁻¹
  k −+ (enantiomerization rate constant used in analysis of d-rac): 0.0959 h⁻¹

## [2H]C1(n2c(C)nc3cccc(N)c3c2=O)CCC(=O)NC1=O (single isomer, unassigned; (+)) [d+, (+)-3-(5-Amino-2-methyl-4-oxoquinazolin-3(4H)-yl)-(3-^2H)-piperidine-2,6-dione]
[3]; [9]
  t1/2, compound analyzed d+: 1.1 h
  t1/2, compound analyzed h+: 1.0 h
  AUC, compound analyzed d+: 63600 ng·h/mL
  AUC, compound analyzed d−: 661 ng·h/mL
  AUC, compound analyzed h+: 6120 ng·h/mL
  AUC, compound analyzed h−: 993 ng·h/mL
[4]; 1.5 or 15 mg/kg
  efficacy (tumor volume) by dose: observed only at the highest dose
[4]
  potency/efficacy at limiting tumor growth, comparison between compounds: less efficacious than d−

## Cc1nc2cccc(N)c2c(=O)n1C1CCC(=O)NC1=O (single isomer, unassigned; (+)) [h+, (+)-3-(5-amino-2-methyl-4-oxoquinazolin-3(4H)-yl)-piperidine-2,6-dione, reference compound]
[1]; human
  k +− (enantiomerization rate constant h+ to h−): 0.297 h⁻¹
  k d (degradation rate constant): 2.68e-05 s⁻¹
  k −+ (enantiomerization rate constant h− to h+): 0.220 h⁻¹
[1]; human, plasma
  Calculated half-life t1/2, degradation d: 7.2 h
  Calculated half-life t1/2, enantiomerization +−: 2.3 h
[1]; human, plasma, Calculated half-life t1/2, enantiomerization −+
  half-life: 3.2 h
[2]; CD-1, mouse
  k +− (enantiomerization rate constant h+ to h−): 0.0603 h⁻¹
  k d (degradation rate constant): 1.45e-05 s⁻¹
  k −+ (enantiomerization rate constant h− to h+): 0.119 h⁻¹
[2]; CD-1, mouse, plasma
  Calculated half-life t1/2, degradation d: 13.3 h
  Calculated half-life t1/2, enantiomerization +−: 11.5 h
  Calculated half-life t1/2, enantiomerization −+: 5.8 h

## [2H]C1(n2c(C)nc3cccc(N)c3c2=O)CCC(=O)NC1=O (single isomer, unassigned; (-)) [d−, (−)-3-(5-Amino-2-methyl-4-oxoquinazolin-3(4H)-yl)-(3-^2H)-piperidine-2,6-dione]
[3]; [9]
  t1/2, compound analyzed d−: 1.2 h
  t1/2, compound analyzed h−: 1.2 h
  AUC, compound analyzed d+: 898 ng·h/mL
  AUC, compound analyzed d−: 44100 ng·h/mL
  AUC, compound analyzed h+: 1180 ng·h/mL
  AUC, compound analyzed h−: 6160 ng·h/mL
[4]
  potency/efficacy at limiting tumor growth, comparison between compounds: more potent at limiting tumor growth at both doses than h-rac

## Cc1nc2cccc(N)c2c(=O)n1C1CCC(=O)NC1=O (single isomer, unassigned; (-)) [h−, (−)-3-(5-amino-2-methyl-4-oxoquinazolin-3(4H)-yl)-piperidine-2,6-dione, reference compound]
[1]; human
  k +− (enantiomerization rate constant h+ to h−): 0.231 h⁻¹
  k d (degradation rate constant): 2.35e-05 s⁻¹
  k −+ (enantiomerization rate constant h− to h+): 0.169 h⁻¹
[1]; human, plasma, Calculated half-life t1/2, degradation d
  half-life: 8.2 h
[1]; human, plasma, Calculated half-life t1/2, enantiomerization +−
  half-life: 3 h
[2]; CD-1, mouse
  k +− (enantiomerization rate constant h+ to h−): 0.0722 h⁻¹
  k d (degradation rate constant): 1.51e-05 s⁻¹
  k −+ (enantiomerization rate constant h− to h+): 0.0730 h⁻¹
[2]; CD-1, mouse, plasma, Calculated half-life t1/2, degradation d
  half-life: 12.7 h
[2]; CD-1, mouse, plasma, Calculated half-life t1/2, enantiomerization +−
  half-life: 9.6 h
[2]; CD-1, mouse, plasma, Calculated half-life t1/2, enantiomerization −+
  half-life: 9.5 h
[3]; mice, exposure to the enantiomers of the protonated molecule (h-rac dosed)
  share of the total exposure: 39%
